Several values for one entry are separate records, joined by “and”; a condition that tells them apart may be missing. Equal values may be shown once.
Key:
[1] = system: Candida albicans; experiment: Protective action in mice infected with Candida albicans; assay type: in vivo
[2] = Retention of the muramylpeptide in liposomes suspended in MEM-FCS medium; assay type: physicochemical; settings: liposomes in MEM-FCS medium at 37° C.
Description: Liposomes produced under the same conditions, but with muramylpeptides labeled with tritium have enabled the following observations. […] The incorporation of the MDP-GDP and the stability of the latter, has also been verified in reaction tests with anti-MDP monoclonal antibodies. After incubation of these liposomes in the same medium at 37° C. for 72 hours, there is observed a constant agglutination of the liposomes with the antibody (95% of the liposome being agglutinated), this observation bearing witness to the practical absence of any loss of MDP-GDP. […] The leakage, if it was produced, would have been manifested by a decrease in the intensity of agglutination with time.

[3] = system: Klebsiella pneumoniae; experiment: Anti-infectious activity in mice infected with Klebsiella pneumoniae; assay type: in vivo; settings: for protective activity against lethal Klebsiella pneumoniae infection in the mouse (in words): summary of observations
[4] = system: bovine serumal-bumin; experiment: Adjuvant activity in the Swiss female mouse (passive hemagglutination titer); assay type: in vivo; settings: for Primary response 1.21: 100 micrograms with 500 micrograms bovine serum albumin at day 0, serums titrated in pools at day 21; for Secondary response 1.36: booster of 100 micrograms antigen alone at day 30, serums titrated separately at day 36
Description: At day 0, 100 micrograms of C474 were injected with 500 micrograms of bovine serumal-bumin. At day 30, the animals received a booster of 100 micrograms of antigen alone. The following results were obtained:
The titers are expressed in Log 2 of the passive hemagglutination titer. At day 21, the serums were titrated in pools; at day 36, they were titrated separately.

[5] = Pyrogenicity measurements on rabbits (European Pharmacopoea); assay type: in vivo, rabbit; settings: 1 mg/kg; groups of three rabbits, one value per animal; listed as 6 -0-GDP-MDPG-OnBu
From the text: Certain of the compounds according to the invention show at relatively high doses, a certain pyrogenicity, whose impact is however reduced, taking into account the particularly higher therapeutic index from which they appear to benefit. This being the case, the muramylpeptides in which the group of modification by the two lipophile chains is fixed to the 6 position of the saccharide group, and of which the peptide chain is terminated by a glutamy-alpha-ester-gamma-amide group, are particularly advantageous by reason of their more reduced pyrogenicity. Testimony thereof is borne by comparative pyrogenicity measurements carried out on groups of three rabits with the two compounds more particularly studied, according to the procedure of the European Pharmacopoea, Vol. 2, 1971, pages 58-60. In fact, the following results are obtained, expressed by temperature observations observed in experimental animals to which had previously been administered 1 mg/kg of the compounds studied: for the MDP-GDP : 1°;0.9° and 1° C.; for the 6 -0-GDP-MDPG-OnBu : 0.2°; 0.3° and 0.5° C.

[6] = Table XI, 100 μg/day/4 days i.v. (days -4, -3, -2 and -1), 2 × 10^6 Candida albicans
[7] = Table X, 100 μg i.v. at day -1 (dose not given for MDP-L-Ala-GDP), 10^4 K. pneumoniae

Question: Which “Survival (10 d)” value [1, 6] does the source give for “alpha (N-acetyl-muramyl-D-alanyl-D-isoglutamine), beta, gamma-dipalmitoyl-sn-glycerol [MDP (D-D) - GDP]” here?
Answer: 0/16

Question: What about the “retention of the muramylpeptide in the liposomes (in words)” value (shortened to “retention of the muramylpeptide”) [2] of the same compound?
Answer: Quite similar observations

Question: What about the “protective activity against lethal Klebsiella pneumoniae infection in the mouse (in words)” value (“protective activity … in the mouse (in words)” for short) [3] of the same compound?
Answer: protective activity comparable

Question: Which results are given for CCCCCCCCCCCCCCCC(=O)OCC(COC(=O)[C@H](C)NC(=O)CC[C@@H](NC(=O)[C@@H](C)NC(=O)[C@@H](C)O[C@H]1[C@H](O)[C@@H](CO)OC(O)[C@@H]1NC(C)=O)C(N)=O)OC(=O)CCCCCCCCCCCCCCC (stereo partly drawn) [MDP(D,D)-L-Ala-GDP, alpha (N-acetyl-muramyl-D-alanyl-D-isoglutaminyl-L-alanine) beta, gamma-dipalmitoyl-sn-glycerol]?
Answer: retention of the muramylpeptide in the liposomes (in words) [2]: Quite similar observations; Protection (%) [3, 7]: 25%; protective activity against lethal Klebsiella pneumoniae infection in the mouse (in words) [3]: although active, is less so than MDP-L-Ala-GDP

Question: For Gentamicin [reference compound], which “Protection (%)” value ([3]; Table IX, Gentamicin 10 μg subcutaneously 2 hours after infection, 5 × 10^4 K. pneumoniae) is on record?
Answer: 21%

Question: For CCCCCCCCCCCCCCCC(=O)OC[C@@H](COC(=O)CC[C@@H](NC(=O)[C@H](C)NC(=O)[C@@H](C)O[C@H]1[C@H](O)[C@@H](CO)OC(O)[C@@H]1NC(C)=O)C(N)=O)OC(=O)CCCCCCCCCCCCCCC (stereo partly drawn) [MDP-GDP, alpha (N-acetyl-muramyl-L-alanyl-D-isoglutamine), beta, gamma-dipalmitoyl-sn-glycerol], which Protection ([1]; Table XI, 100 μg/day/4 days i.v.) is on record?
Answer: 19

Question: What about the “Survival (10 d)” value [1, 6] of the same compound?
Answer: 2/16

Question: What about the Protection ([1]; Table XII, aqueous suspension 100 μg × 4) of the same compound?
Answer: 75%

Question: What about the “Survival (10 d)” value ([1]; Table XII, aqueous suspension 100 μg × 4 (days -4, -3, -2, -1), 10^6 Candida albicans) of the same compound?
Answer: 6/8

Question: And the “Protection (%)” value ([3]; Table IX, 30 μg intravenously 24 hours before infection, 5 × 10^4 K. pneumoniae)?
Answer: 16%

Question: And the “protective activity when injected in liposomes (in words)” value ([3]; in liposomes, at 0.1 microgram)?
Answer: the most active

Question: What about the “protective activity … in the mouse (in words)” value [3] of the same compound?
Answer: protective activity comparable

Question: And the “Primary response 1.21” value [4]?
Answer: 3.64 Log 2 of the passive hemagglut

Question: And the “Secondary response 1.36” value [4]?
Answer: 10.27 Log 2 of the passive hemagglut

Question: Which “retention of the muramylpeptide” value [2] does the source give for “6-O-(beta, gamma-dipalmitoyl-L-glyceryl)-N-acetyl-muramyl-L-alanyl-D-glutamine-n-buty l-ester [6-O-GDP-MDPG-OnBu]” here?
Answer: Quite similar observations

Question: What about the “Protection (%)” value ([3]; Table VII, aqueous suspension, 100 μg i.v. at day -1, 10^4 K. pneumoniae) of the same compound?
Answer: 68.7%

Question: What about the “Survival (15 d)” value ([3]; Table VII, aqueous suspension, 100 μg i.v. at day -1, mice infected i.v. with 10^4 K. pneumoniae) of the same compound?
Answer: 22/32

Question: What about the “protective activity … in the mouse (in words)” value [3] of the same compound?
Answer: protective activity comparable

Question: What about the “pyrogenicity, temperature observations in experimental animals” value [5] of the same compound?
Answer: 0.2 °C and 0.3 °C and 0.5 °C

Question: What about the “Primary response 1.21” value [4] of the same compound?
Answer: 2.64 Log 2 of the passive hemagglut

Question: And the “Secondary response 1.36” value [4]?
Answer: 8.6 Log 2 of the passive hemagglut

Question: Which results are given for CCCCCCCCCCCCCCCC(=O)OCC(COC(=O)[C@H](C)NC(=O)CC[C@@H](NC(=O)[C@H](C)NC(=O)[C@@H](C)O[C@H]1[C@H](O)[C@@H](CO)OC(O)[C@@H]1NC(C)=O)C(N)=O)OC(=O)CCCCCCCCCCCCCCC (stereo partly drawn) [MDP-L-Ala-GDP, alpha (N-acetyl-muramyl-L-alanyl-D-isoglutaminyl-L-alanine), beta, gamma-dipalmitoyl-sn-glycerol]?
Answer: retention of the muramylpeptide in the liposomes (in words) [2]: Quite similar observations; Protection (%) [3, 7]: 63%

Question: For C[C@@H]1[C@H](O)[C@@H](C)/C=C/C=C/C=C/C=C/C=C/C=C/C=C/[C@H](O[C@@H]2O[C@H](C)[C@@H](O)[C@H](N)[C@@H]2O)C[C@@H]2O[C@](O)(C[C@@H](O)C[C@@H](O)[C@H](O)CC[C@@H](O)C[C@@H](O)CC(=O)O[C@H]1C)C[C@H](O)[C@H]2C(=O)O [Amphotericin B, reference compound], which “Survival (10 d)” value ([1]; Table XI, Amphotericin B 3 μg subcutaneously on the day of infection, 2 × 10^6 Candida albicans i.v.) is on record?
Answer: 2/16

Question: Which “retention of the muramylpeptide” value [2] does the source give for “6-O-(beta, gamma-dipalmitoyl-L-glycerol)-capryl-N-acetyl-muramyl-L-alanyl-D-glutamine -n-butyl ester [6-0-GDP-aminocaproyl-MDPG-OnBu]” here?
Answer: Quite similar observations

Question: And the “Protection (%)” value [3, 7]?
Answer: 56%

Question: And the “Survival (15 d)” value [3, 7]?
Answer: 9/16

Reference: patent publication USRE35706E, “Lipophila derivatives of muramylpeptides having properties of activating macrophages and compositions containing them” (priority 1984, dated 1997)
